Here are results for three compounds from US20070191262A1, “Cancer Therapy and Prevention Based on Modulation of Complement activity” (University of Iowa Research Foundation, priority 2005, published 2007).

Read-outs that look alike come from different tables or passages of the source.

For data set [1] the following is noted: multiphasic clearance from plasma; cited from earlier work.
For data set [2] the following is noted: patients with creatinine clearance >35 mL per minute; cited from earlier work.
For data set [3] the following is noted: cited from earlier work.
Data set [4] deals with follicular lymphoma. As to the kind of experiment: Single agent rituximab therapy of follicular lymphoma, outcome by C1qA[276], CD32 and CD16 polymorphism. It counts as in vivo, human. As for the experimental part: A polymorphism in the C1qA component of complement correlates with prolonged complete remission following rituximab therapy of follicular lymphoma. The non-coding polymorphism at C1qA[276] was examined in 90 patients with follicular lymphoma who were treated with rituximab (single agent) to assess whether a correlation exists between this genetic polymorphism of the complement pathway and clinical effectiveness of rituximab. The presence of an A versus a G allele at the C1qA[276] locus was determined using restriction fragment length polymorphism analysis by investigators blinded to the clinical outcome of the patients. The molecular and clinical data was then analyzed according to C1qA polymorphism, including measurement of radiographic response and duration of response, using methods similar to those used to evaluate the correlation between polymorphisms in CD16/CD32 genes and clinical outcome.
However, prolonged remission was noted among those subjects that achieved remission (either partial or complete response) for individuals who were carriers of the A allele at the C1qA[276] locus (AA or AG) compared to homozygous GG subjects. The strongest correlation was found among those subjects that achieved a complete remission to single agent rituximab. […] A allele was an independent factor for good prognosis, while FcγRIIIa 158 phenylalanine carrier and FcγRIIa 131 arginine carrier indicated poor survival. Thus, the relative risk was 0.2 for C1qA[276] AA/AG versus GG after controlling for CD32 and CD16 polymorphisms. The relative risks were 4.8 for CD32 HR versus HH and 6.16 for CD32 RR versus HH after controlling for complement and CD16 polymorphisms. The relative risks were 4.57 for CD16 VF against VV and 3.69 for CD16 FF versus VV after controlling for complement and CD32 polymorphisms.

In data set [5] the test system is Raji cells. Put plainly: Complement-mediated killing of Raji cells in the presence of rituximab and serum from genotyped donors. It counts as cell-based, human. How it is done: FIG. 1—Percentage of live Raji cells after 72 hours incubation in the presence of rituximab and serum from donors with known C1qA[276] genotype.
(§1) C1qA polymorphism correlates with the ability of complement to opsonize and kill target cells in the presence of therapeutic antibodies. The inventors collected and coded serum samples from 10 healthy donors previously genotyped for C1qA[276A/G] polymorphism. The sera were extensively analyzed for function of complement and ability to opsonize target cells by members of an outside collaborative research group blinded to the identity of the donors and the C1q genotype. The results from killing experiments are presented in summary in FIG. 1. The experiments were designed to determine the ability of the complement from human sera to lyse and thus limit the proliferation of Raji cells, a CD20 expressing B-cell lymphoma cell line, in the presence of rituximab, an anti-CD20 monoclonal with extensive application in clinical therapy of lymphoma. […] The inventors are currently in the process of collecting additional sera for testing. In a one-way ANOVA, p value is 0.086 at this point. Assuming future results will go with the trend observed, the ANOVA test will be in the 0.002 range if only 2 homozygous of each kind are added, and excluding the heterozygous. A better test for this type of data would be Dunn's multiple comparison test. […]

The subject of data set [6] is C3b deposition on B-cell surface. As to the kind of experiment: C3b opsonization of target cells in the presence of rituximab and donor serum (flow cytometry). The data set is classed as cell-based, human. The note with it: serum from homozygous A donors.
Description: FIG. 2—Level of C3b opsonization of B-cell surface in the presence of rituximab and serum from individuals with known C1qA[276] genotype.
as §1

In the case of `CC[C@]1(O)C[C@H]2CN(CCc3c([nH]c4ccccc34)[C@@](C(=O)OC)(c3cc4c(cc3OC)N(C=O)[C@H]3[C@@](O)(C(=O)OC)[C@H](OC(C)=O)[C@]5(CC)C=CCN6CC[C@]43[C@@H]65)C2)C1` [Vincristine], the terminal half-life entry in data set [1] is listed as “about 24 hr”.

Take Bleomycin: in data set [2], the “serum or plasma terminal elimination half-life” value was “approximately 115 min”. The tissue concentration entry in data set [3] (hematopoietic tissue / bone marrow) is given as “low concentrations”; in data set [3] (mice, skin, lungs, kidneys, peritoneum, lymphatics) it was “high concentrations”.

For the compound “Rituximab: monoclonal antibody that targets CD20, which is found on more than 90% of non-Hodgkin's lymphomas”, in data set [4] (90 follicular lymphoma patients, single agent), the “difference in response rate based on C1qA polymorphisms” value is “No statistically significant difference”. For the same compound, the time to progression is reported as 830 days in data set [4] (C1qA[276] AA/AG subjects who achieved complete remission) and 250 days in data set [4] (C1qA[276] GG subjects who achieved complete remission). Further, the relative risk is given as 0.2 in data set [4] (C1qA[276] AA/AG versus GG, controlling for CD32 and CD16 polymorphisms); 3.69 in data set [4] (CD16 FF versus VV, controlling for complement and CD32 polymorphisms); 4.57 in data set [4] (CD16 VF against VV, controlling for complement and CD32 polymorphisms); 4.8 in data set [4] (CD32 HR versus HH, controlling for complement and CD16 polymorphisms); 6.16 in data set [4] (CD32 RR versus HH, controlling for complement and CD16 polymorphisms). For the same compound, the “HR (time to progression)” value in data set [4] (GG versus AA/AG, complete remission group, 95% CI=2.1-96.9) is on record as 4.1. In addition, the “average lysis of Raji cells” value in data set [5] (heterozygous sera) is “moderate efficiency”. In addition, the “ability of serum complement to lyse Raji cells” value in data set [5] (serum of homozygous C1qA[276A] donors versus homozygous G, 72 hours, p<0.04) is reported as “significant decrease”. In data set [6], the “deposition of C3b molecules on the surface of target cells” value is “least efficient”.
